{
  "source": "patent US20090011447A1",
  "about": "“QUANTIFICATION OF VITELLOGENIN” (priority 2006, published 2009)",
  "type_in_all_cases": "in vivo",
  "key": {"[1]": {"test_system": "plasma Vtg", "experiment": "Vtg induction with β-estradiol in Rainbow trout, plasma signature peptide quantified by HPLC-QqToF-MS/MS", "details": "experimental (E) Rainbow trout, individual fish", "protocol": "(§1) Thirteen juvenile Rainbow trout and ten mature Atlantic salmon were kept in two 60 gallon tanks with running fresh and sea water, respectively. A 12 hour light-darkness cycle was maintained during the experiment. After one month of acclimatization, experimental fish were injected intraperitoneally four times, at one week intervals, with a dose of 10 mg of β-estradiol per kilogram of body weight using a 10 mg/mL solution in oil:acetone (9:1). Control fish were injected with the oil:acetone solution only.\n(§2) One week before the first injection and one week after the last injection, fish were anesthetized using tricaine methanesulfonate (TMS) and blood samples were collected from the caudal vein using heparinized syringes and transferred in 1 mL portions into plastic tubes kept in ice. Samples were centrifuged at 3000 rpm for 5 minutes at 0° C. Plasma was separated and kept frozen at −80° C. until further analysis.\n(§3) Five μL of plasma were mixed with 100 μL of denaturing buffer (8M urea, 4 mM dithiothreitol) and heated at 65° C. Then, 300 μL of a 50 mM solution of NH4HCO3 were added, followed by 95 μL of a 20 μg/mL trypsin solution. Digestion was carried out at 38° C. for 24 hours. Aliquots of 100 μL of the digested samples were mixed with 380 μL of solvent B (H2O: acetonitrile: acetic acid 70:30:0.1) and spiked with 20 μL of 5 μg/mL labeled standard solution. Finally, the samples were passed through 0.45 μm filters (Millipore Billerica Mass., USA, Cat. No. SJHV004NS) prior to injection into the HPLC.\n(§4) In the case of Rainbow trout and salmon, samples and standards were analyzed with a HPLC system (HP 1050 from Hewlett-Packard, Palo Alto Calif., USA) coupled on-line to a QqToF (QStar XL, Applied Biosystems, Foster City Calif., USA) tandem mass spectrometer equipped with an ESI ion source (TurbolonSpray). […]\n(§5) For quantification purposes, the extracted ion chromatograms of these diagnostic product ions were generated using a 2 Da mass range window around the selected product ions and manually integrated. […]"}, "[2]": {"test_system": "Vtg", "experiment": "Vtg induction with β-estradiol in Atlantic cod, assessed by SDS-PAGE", "details": "experimental Atlantic cod serum, Coomassie blue stained gel, vs control fish", "protocol": "Twelve mature female Atlantic cod fish were kept in a 60 gallon tank with a running sea water supply and fed, ad libitum. A 12 hour light-darkness cycle was maintained during the experiment. After one month of acclimatization, experimental fish were injected intraperitoneally four times, at one week intervals, a dose of 10 mg of β-estradiol per kilogram of fish body weight using a 10 mg/ml solution in oil:acetone (9:1). Control fish were injected only with the oil:acetone solution. One week after the last injection, fish were anesthetized using tricaine methanesulfonate (TMS) and bled. Blood samples were collected from the caudal vein using heparinized syringes and transferred in 1 mL portions into plastic tubes kept in ice. Twenty microliters of a 4 TIU aprotinin solution were added to each sample, homogenized and centrifuged at 3000 rpm for 5 minutes at 0° C. Plasma was separated and kept frozen at -80° C. until further analysis. Separation of Vtg by SDS-PAGE and subsequent “in-gel” digestion was performed following the procedure described in detail by […] et al. with minor modifications^65. Five microliters of thawed plasma from both experimental and control fish were mixed and loaded onto a 6% acrylamide gel and run for one hour at 180 V. The gel was stained using the colloidal Coomassie blue protocol. […]"}, "[3]": {"test_system": "plasma Vtg", "experiment": "Vtg induction with β-estradiol in Atlantic salmon, plasma signature peptide quantified by HPLC-QqToF-MS/MS", "details": "experimental (E) Atlantic salmon, individual fish", "protocol": "as §1, §2, §3, §4, §5"}, "[4]": {"details": "converted from SP assuming 1:1 molar ratio"}, "[5]": {"details": "one week after last of four weekly i.p. injections of 10 mg/kg, 10 mg/kg"}},
  "note": "Several values for one entry are separate records, joined by “and”; a condition that tells them apart may be missing. Equal values may be shown once.",
  "data": [
    {"smiles": "C[C@]12CC[C@@H]3c4ccc(O)cc4CC[C@H]3[C@@H]1CC[C@@H]2O", "note": "[β-estradiol]", "values": [
      {"measurement": "Vtg Conc, After β-estradiol", "setting": "[1]", "result": "0.351 µM and 0.487 µM and 0.343 µM and 0.278 µM and 0.375 µM and 0.471 µM and 0.120 µM and 0.225 µM and 0.113 µM and 0.344 µM and 0.460 µM"},
      {"measurement": "Vtg Conc, After β-estradiol", "setting": "[1]; [4]", "result": "6.389 µg/mL and 8.867 µg/mL and 6.239 µg/mL and 5.059 µg/mL and 6.830 µg/mL and 8.562 µg/mL and 2.182 µg/mL and 4.091 µg/mL and 2.057 µg/mL and 6.264 µg/mL and 8.370 µg/mL"},
      {"measurement": "SP Conc, After β-estradiol", "setting": "[1]; [5]", "result": "0.576 µg/mL and 0.799 µg/mL and 0.562 µg/mL and 0.456 µg/mL and 0.615 µg/mL and 0.771 µg/mL and 0.197 µg/mL and 0.368 µg/mL and 0.185 µg/mL and 0.564 µg/mL and 0.754 µg/mL"},
      {"measurement": "Vtg induction (SDS-PAGE band)", "setting": "[2]", "result": "strong induced band"},
      {"measurement": "Vtg Conc, After β-estradiol", "setting": "[3]", "result": "0.383 µM and 0.591 µM and 0.268 µM and 0.399 µM and 0.330 µM"},
      {"measurement": "Vtg Conc, After β-estradiol", "setting": "[3]; [4]", "result": "6.967 µg/mL and 10.758 µg/mL and 4.876 µg/mL and 7.254 µg/mL and 5.997 µg/mL"},
      {"measurement": "SP Conc, After β-estradiol", "setting": "[3]; [5]", "result": "0.628 µg/mL and 0.969 µg/mL and 0.439 µg/mL and 0.653 µg/mL and 0.540 µg/mL"}
    ]}
  ]
}
